Measured values taken from patent US20190054093A1, “TREATMENT OF SARCOPENIA WITH ECDYSTEROIDS” (priority 2014, published 2019).

Key:
C2C12 myotubes [1] = experiment: Protein synthesis by radio-labeled leucine incorporation in C2C12 myotubes (Example 3); format: cell-based, mouse
[2] = system: Caspase-3 expression in C2C12 myotubes; experiment: Caspase 3 expression in C2C12 myotubes (quantitative RT-PCR, Example 4); format: cell-based, mouse; details: 24 hours; extracts and turkesterone 0.002, 0.02 and 2 ppm, 20HE 0.001, 0.01 and 1 ppm
Procedure: Experiments similar to those in example 1 have been carried out with two other plant-derived, ecdysteroid-rich extracts. […] Cells between passages 3 and 10 were seeded at a density of 10,000 cells per cm^2. Cells were grown for 48 h until they reached 80-90% confluence. […] Cells were maintained at 37° C. in a humidified 5% CO2 incubator and medium was changed every other day.
For RNA and protein extraction C2C12 myotubes were incubated with 0.002, 0.02 and 2 ppm of Rhaponticum carthamoides extract (RCE) and Cyanotis arachnoidea extract (CAE) or 0.001, 0.01 and 1 ppm of 20-hydroxyecdysone or 0.002, 0.02 and 2 ppm of Turkesterone for 24 hours. These two latter served as positive controls. RNA and protein were extracted using All Prep RNA/Protein Kit (Qiagen, Spain). RNA was stored at −80° C. and protein at −20° C. until further use. Total RNA was quantified using a fluorometric method with Quant-iT kit (Invitrogen, Spain). The cDNA was reverse-transcribed from the RNA extract using RT^2First Stand cDNA kit (Qiagen, Spain). Quantitative real-time RT-PCR for Caspase-3 and Myostatin were carried out using a MX3005P Q-PCR System (Agilent Technologies) and SYBR-Green/ROX detection. The housekeeping gene used was Actb and Mouse XpressRef Universal total RNA (Qiagen, Spain) as a positive control. […] The fold change in gene expression was calculated with ΔΔCt Method.

C2C12 myotubes [3] = format: cell-based, mouse; details: dose response experiment; 16 h
Procedure: After cells reached 80-90% confluence (72 hours post-seeding) the media was replaced with differentiation media (DM): DMEM containing 2% horse serum (PAA; GE HealthCare), 10 mM Hepes (Lonza), 6 mM glutamine, 100 U/mL penicilin and 100 μgr/mL streptomycin (Biochrom). Media was replaced every 2 days, and after 10 days the myoblast has fused into multinucleated myotubes showing a fusion index of 70-80%.
Before cell treatment, a 2000× Botanicals Extracts Stocks solutions were prepared in Biological grade DMSO (Sigma) or Ultrapure H2O (milliQ; Millipore), sonicated for 30 min and Filtered using a 0.22 μm pore size syringe filter membrane (Millipore). […]
Protein synthesis was determined by measuring the incorporation of the tritiated L-Leucine (^3H-Leu) into C2C12 cellular proteins. […] Radioactivity was measured using a liquid scintillation counter (Tri-Carb, Perkin Elmer) and expressed as decay per minute (DPM). Total protein was quantified using Bradford method-based assay (microassay procedure) following the manufacturer's instructions (Biorad protein assay, BioRad Laboratories). Protein synthesis was calculated from the trichloroacetic acid-insoluble radioactivity incorporated per microgram of total protein. Results were expressed as relative increase in L-[3H]-Leucine compared with 100% of not treated Control. […]

[4] = biological target: T1, recombinant rat androgen receptor (Rattus norvegicus, UniProt P15207); experiment: Androgen receptor binding assay, displacement of [3H]mibolerone; details: concentrations of 1 to 100 μM
T1 sequence (P15207 1-902): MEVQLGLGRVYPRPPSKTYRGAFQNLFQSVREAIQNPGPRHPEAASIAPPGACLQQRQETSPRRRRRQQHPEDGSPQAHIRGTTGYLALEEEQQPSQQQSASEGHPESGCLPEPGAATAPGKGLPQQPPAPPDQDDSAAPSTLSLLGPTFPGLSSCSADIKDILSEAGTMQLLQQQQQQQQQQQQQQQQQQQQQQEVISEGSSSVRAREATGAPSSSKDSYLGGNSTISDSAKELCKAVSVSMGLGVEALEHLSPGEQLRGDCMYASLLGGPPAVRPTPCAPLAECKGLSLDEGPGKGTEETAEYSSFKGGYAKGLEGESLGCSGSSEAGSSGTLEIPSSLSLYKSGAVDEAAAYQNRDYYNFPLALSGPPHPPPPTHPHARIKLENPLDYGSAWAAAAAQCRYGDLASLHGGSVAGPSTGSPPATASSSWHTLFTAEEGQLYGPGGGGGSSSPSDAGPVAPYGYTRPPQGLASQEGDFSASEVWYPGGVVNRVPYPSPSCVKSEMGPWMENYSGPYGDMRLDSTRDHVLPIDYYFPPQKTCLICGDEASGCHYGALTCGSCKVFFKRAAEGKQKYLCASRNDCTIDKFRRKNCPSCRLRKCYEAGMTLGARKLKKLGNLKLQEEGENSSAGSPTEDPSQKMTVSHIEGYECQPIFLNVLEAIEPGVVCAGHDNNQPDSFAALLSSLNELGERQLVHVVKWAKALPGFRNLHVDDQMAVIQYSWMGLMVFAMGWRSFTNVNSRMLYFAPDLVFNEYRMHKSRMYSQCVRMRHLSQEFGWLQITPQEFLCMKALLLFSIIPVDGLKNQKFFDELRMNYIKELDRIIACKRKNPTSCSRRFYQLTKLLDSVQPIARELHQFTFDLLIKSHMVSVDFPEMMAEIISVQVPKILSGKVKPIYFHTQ
Procedure: Briefly, recombinant rat androgen receptor was combined with [3H]mibolerone in a buffer of 50 mM Tris-HCl, pH 7.5, 0.8 M NaCl, 10% glycerol, 2 mM dithiothreitol, 1 mg/mlL BSA, and 2% ethanol. DPM of the incubation buffer was measured to quantify displacement of the labeled ligand.

[5] = rats fed 5 mg/kg BW for 7 days; 20HE derived from Rhaponticum carthamoides; cited from earlier work
[6] = system: Primary human skeletal muscle cells; experiment: Protein synthesis by radio-labeled leucine incorporation in human skeletal myotubes (Example 3); details: 100 nM, 24 h of treatment
Procedure: Primary human skeletal muscle cells (a gift from Dr. William Cefalu of the Pennington Biomedical Research Center, Baton Rouge, La.) were seeded at a density of 10^5 cells/cm2 onto 24-well tissue culture plates. The cells were grown in DMEM supplemented with 10% FBS and a SingleQuot Kit (Lonza, Portsmouth, N.H.) containing epidermal growth factor, insulin, bovine serum albumin (BSA), fetuin, dexamethasone, and gentamicin/amphotericin-B. Cells were grown for 96 h in 5% CO2 at 37° C. until they reached 80% confluency, and the medium was replaced with differentiation medium (DMEM with 2% horse serum). After 18 days, myoblasts fused into multinucleated myotubes. […] Additionally, extracts of spinach or Ajuga turkestanica were also added. Radio-labeled leucine was used to assess any changes in protein synthesis. Decays per minute (DPM) were measured in a liquid scintillation counter (LS 6500, Beckman Coulter). Total protein was quantified using the bicinchoninic acid (BCA) method following the manufacturer's instructions (Pierce, Rockford, Ill.). The data were expressed as DPM per milligram of total protein.

With `CC(C)(O)CC[C@@H](O)[C@](C)(O)[C@H]1CC[C@@]2(O)C3=CC(=O)[C@@H]4C[C@@H](O)[C@@H](O)C[C@]4(C)[C@H]3CC[C@]12C` [Example 20HE, 20-hydroxyecdysone] the “protein synthesis, % of control” value (C2C12 myotubes [1]; 40 nM) was 110 % of control, the “protein synthesis, % of control (peak effect)” value (C2C12 myotubes [1]; 0.1 μM) was 120 % of control and the “regulation of Caspase 3 expression” value [2] was “significant effect in down regulation”. The “protein synthesis versus the control group” value (C2C12 myotubes [3]) was “statistically significant increase”, the “inhibition of [3H]mibolerone binding” value [4] was “did not show any significant inhibition” and the “weight of liver, heart, kidneys and the tibialis anterior muscle” value [5] was “increases”. The “protein synthesis, % of control” value [6] was 120 % of control.
